Test results taken from patent publication US20080286301A1, “Treatment of diabetes” (priority 1997, published 2008).
Entries after “also recorded” stand apart in the source; their conditions may differ.

Columns and labels:
Format in all cases: in vivo, human
Type I diabetic subjects = experiment: Sustacal meal preceded by subcutaneous injection of 100 μg GLIP in Type I diabetics (Example 5); settings: 100 μg GLIP sc prior to test meal
Excerpt: Type I diabetic subjects were studied.
The results are shown in FIG. 5. *indicates statistically significant differences between treatments (p<0.05).

normal volunteers = experiment: Sustacal meal preceded by subcutaneous injection of GLIP in normal volunteers (Example 4); settings: 100 μg GLIP sc before Sustacal meal
Excerpt: Results are shown in FIG. 4. *indicates statistically significant differences between treatments (p<0.05).

[1] = Blood levels of GLIP by radioimmunoassay after subcutaneous injection (Example 6); settings: 50 μg GLIP sc with 5 units insulin, Type I diabetic subject; FIG. 6 Panel E
Description: (§1) One Type 1 diabetic subject was given GLIP along with insulin and the effects on post-prandial glycaemia observed. The subject received 5 units of insulin and 50 μg GLIP as subcutaneous injections immediately prior to ingestion of a Sustacal meal as described in Example 1. Blood levels of GLIP were monitored by a standard radioimmunoassay method.

Type 1 diabetic subject = experiment: GLIP along with insulin subcutaneously prior to Sustacal meal, post-prandial glycaemia (Example 6); settings: 50 μg GLIP sc along with 5 units insulin (half the usual dose) prior to Sustacal meal; one subject; FIG. 6 Panel A
Description: as §1

[2] = test system: subjects with remission phase Type I diabetes; experiment: Intravenous glucose infusion with intravenous GLIP (Example 2); settings: IV GLIP 1.2 pm/kg/min for 60 min along with IV glucose 20 g over 60 min; FIG. 2
[3] = test system: subjects with remission phase Type I diabetes; experiment: Sustacal meal with intravenous GLIP infusion 1.2 pm/kg/min (Example 1); settings: IV GLIP 1.2 pm/kg/min for 120 min after Sustacal meal; for gastrin levels / gastrin response: FIG. 1 Panel E
Description: 7 subjects with remission phase Type I diabetes were studied after ingestion of a standardised meal of Sustacal (Upjohn) (delivering […]). Subjects continued their normal insulin treatment programme on the day prior to the test and, on the day of the test, omitted their morning insulin injection and arrived fasting at 8:00 am. […] Infusion was continued for 120 minutes. Blood levels of glucose, C-peptide, gastrin, glucagon and HPP were monitored by standard radioimmunoassay methods in samples taken before and at intervals during the study, up to 180 minutes. On another test day, subjects were given the Sustacal meal alone and the same analytes were similarly monitored.

[4] = test system: subjects with remission phase Type I diabetes; experiment: Sustacal meal with infusion of 0.75 pm/kg/min GLIP (Example 3); settings: versus saline infusion control, FIG. 3
Description: Four subjects with remission phase Type I diabetes were studied during infusion with 0.75 pm/kg/min-GLIP for 120 minutes after a Sustacal meal.
The test was conducted as described in Example 1 and blood glucose and C-peptide levels were measured. On a further test day, the subjects were studied during saline infusion after a similar Sustacal meal.

## Glucagon-like peptide 1(7-36)amide [GLIP]
Type I diabetic subjects; FIG. 5 Panel A
  blood glucose levels compared to control: lowering of blood glucose levels
Type I diabetic subjects; FIG. 5 Panel D
  pancreatic polypeptide (HPP) levels: delayed rise in pancreatic polypeptide (HPP) levels
Type I diabetic subjects; FIG. 5 Panels B and C
  insulin secretion over control levels: no enhancement of insulin secretion over control levels
Normal volunteers
  increase in blood levels of C-peptide: delay in increase
  increase in blood levels of HPP: delay in increase
  increase in blood levels of glucose: delay in increase
  increase in blood levels of insulin: delay in increase
[1]
  time to clearance from the blood: about two
Type 1 diabetic subject
  blood glucose after standard meal (highest level): ≤ 8 mM
[2]
  control of blood glucose level: improved control of blood glucose level
[3]; FIG. 1
  blood levels of C-peptide: prevented a significant increase in blood levels of C-peptide
  plasma glucagon levels stimulated by the meal: prevented the mean rise in plasma glucagon levels
[3]; FIG. 1 Panel C
  secretion of pancreatic polypeptide (PP) after the meal: this response was absent
[3]
  gastrin levels / gastrin response: not significantly affected
[3]; listed as CLIP
  gastrin levels / gastrin response: normal gastrin response
[4]; lower dose of GLIP (0.75 pmol/kg/min) along with a meal
  C-peptide: some increase
[4]; lower dose of GLIP (0.75 μmol/kg/min) along with a meal
  blood glucose: some increase; also recorded: less than in the control experiment
